Values quoted from earlier work in paper PMC8068036, “Synthesis of New Biscoumarin Derivatives, In Vitro Cholinesterase Inhibition, Molecular Modelling and Antiproliferative Effect in A549 Human Lung Carcinoma Cells” (International Journal of Molecular Sciences, 2021).

Experiments:
rat brain AChE = system: rat brain AChE; parameters: method as in PMID 10213168; conditions: cited from earlier work
hAChE = system: hAChE; parameters: method as in PMID 25812965, PMID 27744252, PMID 10213168; conditions: Figure 2; cited from earlier work
hMAO-B = system: hMAO-B; parameters: method as in PMID 25812965, PMID 27744252, PMID 10213168; conditions: printed in Figure 2, quantity not named; cited from earlier work
AChE = system: AChE; parameters: method as in PMID 25812965, PMID 27744252, PMID 10213168; conditions: Figure 2; cited from earlier work
BChE = system: BChE; parameters: method as in PMID 25812965, PMID 27744252, PMID 10213168; conditions: Figure 2; cited from earlier work

In the case of COc1cc2oc(=O)c(C)c(C)c2cc1OCCCN1CCN(c2ccccc2OC)CC1 [KA-672, ensaculin], the IC50 (rat brain AChE) is listed as 360 nM.

For Cc1c(C)c2ccc(OCCN3CCN(CCNc4c5c(nc6ccccc46)CCCC5)CC3)cc2oc1=O [compound 6], the IC50 (hAChE) is listed as 16.1 nM.

In the case of Cc1c(N=O)c(=O)oc2cc(CCCN3CCC(Cc4ccccc4)CC3)ccc12 [compound 7], the IC50 (hMAO-B) is listed as 5900 nM, the IC50 (AChE) is listed as 300 nM and the IC50 (BChE) is listed as 980 nM.
